The values below come from US6835323B2, “Aqueous hydraulic medium” (Kemira Oyj, priority 1999, dated 2004).

Experiment [1] concerns Pseudomonas putila bacterium. The conditions noted are these: cited from earlier work.
Experiment [2] has as its system various microbes of paper-industry waste paste. To be noted: inoculated with microbes, within two days.
Experimental: The test was conducted so that each solution to be investigated was taken into two plastic sample flasks, 60 ml into each. One of the two flasks was inoculated with 2 g of paper-industry waste paste containing various microbes, such paste being known as a favorable growth medium for microbes. After mixing, the samples were allowed to stand at room temperature for 2 days.
Culture tests were performed on the samples in a laboratory specialized in microbiologic assays.
The assay of aerobic bacteria was performed using a PCA substrate and incubation for 2 days at 37° C. For the assay of anaerobic bacteria, Brewer's agar and incubation for 2 days in anaerobic vessels at 37° C. were used. In the assay of slime-forming bacteria, PCA-agar+saccharose 50 g/l and incubation for 2 days at 37° C. were used. The slimy colonies were counted. Yeasts and molds were assayed using a Saboraud maltose agar substrate and incubation for 3-4 days at 30° C.

Structures are written as SMILES. In brackets after ≈: the same amount, converted by molar mass.

Turning to `O=CO` [formic acid], the “EC 50 value” in experiment [1] was 46.7 µg/mL (≈ 1010 µM).
Consider `O=C[O-].[K+]` [potassium formate], for which the “Effect on inoculated microbes” value in experiment [2] is “does not form a growth medium for microbes”.
For the compound `CCC(=O)O` [propionic acid], the “EC 50 value” in experiment [1] was 59.6 µg/mL (≈ 805 µM).
